Patent publication US6846805B2, “Helical peptidomimetics” (The Brigham and Women's Hospital, Inc., priority 2002, dated 2005)
Square brackets hold non-standard residues; d marks the D form. Peptide text beside a SMILES is read from it. * marks the point of attachment. dBpa = N[C@H](Cc1ccc(C(=O)c2ccccc2)cc1)C(=O)O; Boc = CC(C)(C)OC(=O)*; Aib = CC(C)(N)C(=O)O; Bn = c1ccc(C*)cc1

test system: γ-secretase (production of total Aβ); test: Inhibition of total Aβ production in APP-transfected cells (sandwich ELISA); format: cell-based; settings: cell-based assay, CHO cells stably transfected with human APP; read-out: IC50 (concentration of compound that reduced production of total Aβ by 50%)
Source text: Based on the helical model for the APP transmembrane domain, we have identified short peptides designed to adopt a similar conformation that block γ-secretase activity. Judicious replacement of selected residues of short APP-derived peptides with 2-aminoisobutyric acid (Aib), a known helix-inducing amino acid (19, 20), provided peptides that, in principle, mimic the γ-secretase cleavage site on one face of the helix, with Aib residues on the other face. We have identified Aib-containing peptides (see below) that inhibit Aβ production in APP-transfected cells with IC50's as low as 2 μM. […] We also discovered that an Aib decapeptide that is not based on the APP sequence (VIIb in ref 19: […] The crystal structure of this compound has been determined, and the peptide is fully helical (19). […] These peptides likewise assume a helical conformation, although of the opposite sense (left-handed instead of right-handed). Thus, the invention advantageously provides helical peptidomimetics having improved metabolic stability. […] IC50 is the concentration of compound that reduced production of total Aβ by 50% in a cell-based assay using CHO cells stably transfected with human APP. […] The 15 D-peptides, varied in first position, are tested for their ability to inhibit total Aβ production in APP-transfected cell lines using a sensitive, quantitative, and convenient sandwich ELISA as we have previously described (12, 13). The compound best able to reduce Aβ production is then used as a starting point for the synthesis of a second round of peptide synthesis, 15 compounds each defined at the second position and containing the optimal first residue. In this iterative fashion, the optimal residue for each position is determined.

Compound	IC50 [µM]
CC[C@H](C)[C@H](NC(=O)C(C)(C)NC(=O)[C@@H](NC(=O)[C@H](C)NC(=O)OC(C)(C)C)[C@@H](C)OCc1ccccc1)C(=O)N[C@H](C(=O)NC(C)(C)C(=O)OC)C(C)C [Compound 1, Boc-Ala-Thr(OBz)-Aib-Ile-Val-Aib-OMe] (Boc-AT(Bn)[Aib]IV[Aib]-OMe)	25
CC[C@H](C)[C@H](NC(=O)OC(C)(C)C)C(=O)N[C@@H](C)C(=O)N[C@H](C(=O)NC(C)(C)C(=O)N[C@H](C(=O)N[C@H](C(=O)NC(C)(C)C(=O)OC)C(C)C)[C@@H](C)CC)[C@@H](C)OCc1ccccc1 [Compound 2, Boc-Ile-Ala-Thr(OBz)-Aib-Ile-Val-Aib-OMe] (Boc-IAT(Bn)[Aib]IV[Aib]-OMe)	15
CC[C@H](C)[C@H](NC(=O)C(C)(C)NC(=O)OC(C)(C)C)C(=O)N[C@@H](C)C(=O)N[C@H](C(=O)NC(C)(C)C(=O)N[C@H](C(=O)N[C@H](C(=O)NC(C)(C)C(=O)OC)C(C)C)[C@@H](C)CC)[C@@H](C)OCc1ccccc1 [Compound 3, Boc-Aib-Ile-Ala-Thr(OBz)-Aib-Ile-Val-Aib-OMe] (Boc-[Aib]IAT(Bn)[Aib]IV[Aib]-OMe)	10
CC[C@H](C)[C@H](NC(=O)C(C)(C)NC(=O)[C@@H](NC(=O)OC(C)(C)C)C(C)C)C(=O)N[C@@H](C)C(=O)N[C@H](C(=O)NC(C)(C)C(=O)N[C@H](C(=O)N[C@H](C(=O)NC(C)(C)C(=O)OC)C(C)C)[C@@H](C)CC)[C@@H](C)OCc1ccccc1 [Compound 4, Boc-Val-Aib-Ile-Ala-Thr(OBz)-Aib-Ile-Val-Aib-OMe] (Boc-V[Aib]IAT(Bn)[Aib]IV[Aib]-OMe)	2
CC[C@H](C)[C@H](NC(=O)C(C)(C)NC(=O)[C@@H](NC(=O)CNC(=O)OC(C)(C)C)C(C)C)C(=O)N[C@@H](C)C(=O)N[C@H](C(=O)NC(C)(C)C(=O)N[C@H](C(=O)N[C@H](C(=O)NC(C)(C)C(=O)OC)C(C)C)[C@@H](C)CC)[C@@H](C)OCc1ccccc1 [Compound 5, Boc-Gly-Val-Aib-Ile-Ala-Thr(OBz)-Aib-Ile-Val-Aib-OMe] (Boc-GV[Aib]IAT(Bn)[Aib]IV[Aib]-OMe)	5
CC[C@H](C)[C@H](NC(=O)[C@@H](NC(=O)OC(C)(C)C)C(C)C)C(=O)NC(C)(C)C(=O)N[C@H](C(=O)N[C@H](C(=O)NC(C)(C)C(=O)OC)C(C)C)[C@@H](C)OCc1ccccc1 [Compound 6, Boc-Val-Ile-Aib-Thr(OBz)-Val-Aib-OMe] (Boc-VI[Aib]T(Bn)V[Aib]-OMe)	12
CC[C@H](C)[C@H](NC(=O)[C@@H](NC(=O)[C@@H](NC(=O)OC(C)(C)C)C(C)C)C(C)C)C(=O)NC(C)(C)C(=O)N[C@H](C(=O)N[C@H](C(=O)NC(C)(C)C(=O)OC)C(C)C)[C@@H](C)OCc1ccccc1 [Compound 7, Boc-Val-Val-Ile-Aib-Thr(OBz)-Val-Aib-OMe] (Boc-VVI[Aib]T(Bn)V[Aib]-OMe)	6
CC[C@H](C)[C@H](NC(=O)[C@@H](NC(=O)[C@@H](NC(=O)C(C)(C)NC(=O)OC(C)(C)C)C(C)C)C(C)C)C(=O)NC(C)(C)C(=O)N[C@H](C(=O)N[C@H](C(=O)NC(C)(C)C(=O)OC)C(C)C)[C@@H](C)OCc1ccccc1 [Compound 8, Boc-Aib-Val-Val-Ile-Aib-Thr(OBz)-Val-Aib-OMe] (Boc-[Aib]VVI[Aib]T(Bn)V[Aib]-OMe)	6
CC[C@H](C)[C@H](NC(=O)[C@@H](NC(=O)[C@@H](NC(=O)C(C)(C)NC(=O)CNC(=O)OC(C)(C)C)C(C)C)C(C)C)C(=O)NC(C)(C)C(=O)N[C@H](C(=O)N[C@H](C(=O)NC(C)(C)C(=O)OC)C(C)C)[C@@H](C)OCc1ccccc1 [Compound 9, Boc-Gly-Aib-Val-Val-Ile-Aib-Thr(OBz)-Val-Aib-OMe] (Boc-G[Aib]VVI[Aib]T(Bn)V[Aib]-OMe)	3
CC[C@H](C)[C@H](NC(=O)[C@@H](NC(=O)[C@@H](NC(=O)C(C)(C)NC(=O)CNC(=O)[C@@H](NC(=O)OC(C)(C)C)C(C)C)C(C)C)C(C)C)C(=O)NC(C)(C)C(=O)N[C@H](C(=O)N[C@H](C(=O)NC(C)(C)C(=O)OC)C(C)C)[C@@H](C)OCc1ccccc1 [Compound 10, Boc-Val-Gly-Aib-Val-Val-Ile-Aib-Thr(OBz)-Val-Aib-OMe] (Boc-VG[Aib]VVI[Aib]T(Bn)V[Aib]-OMe)	3
COC(=O)C(C)(C)NC(=O)[C@H](CC(C)C)NC(=O)[C@H](C)NC(=O)C(C)(C)NC(=O)[C@H](CC(C)C)NC(=O)[C@H](C)NC(=O)C(C)(C)NC(=O)[C@H](CC(C)C)NC(=O)[C@H](C)NC(=O)C(C)(C)NC(=O)OC(C)(C)C [VIIb, Boc-Aib-Ala-Leu-Aib-Ala-Leu-Aib-Ala-Leu-Aib-O-methylester, reference compound] (Boc-[Aib]AL[Aib]AL[Aib]AL[Aib]-OMe)	2

same assay, conditions: same cell-based assay, CHO cells stably transfected with human APP; read-out: IC50 (reduction of total Aβ production)

Compound	IC50 [µM]
COC(=O)C(C)(C)NC(=O)[C@H](NC(=O)[C@H](NC(=O)C(C)(C)NC(=O)[C@@H](Cc1ccc(C(=O)c2ccccc2)cc1)NC(=O)[C@H](NC(=O)[C@H](NC(=O)C(C)(C)NC(=O)CNC(=O)[C@H](NC(=O)OC(C)(C)C)C(C)C)C(C)C)C(C)C)[C@H](C)OCc1ccccc1)C(C)C [SEQ ID NO:11, Boc-D-Val-Gly-Aib-D-Val-D-Val-D-BPA-Aib-D-Thr(OBz)-D-Val-Aib-OMe] (Boc-[dV]G[Aib][dV][dV][dBpa][Aib][dT](Bn)[dV][Aib]-OMe)	0.1
